Assays:
human androgen receptor = target: T1, human androgen receptor (Homo sapiens, UniProt P10275); test: Reporter assay of an androgen receptor responsive sequence (luciferase, transiently transfected HEK293 cells); assay type: cell-based; conditions: 24 hours incubation, relative to activity of 100 nM DHT, read-out: AR transcriptive activity (pEC50) (converted)
T1 construct: expressed in transfected cells; host or cells: HEK293
T1 sequence (P10275 1-920): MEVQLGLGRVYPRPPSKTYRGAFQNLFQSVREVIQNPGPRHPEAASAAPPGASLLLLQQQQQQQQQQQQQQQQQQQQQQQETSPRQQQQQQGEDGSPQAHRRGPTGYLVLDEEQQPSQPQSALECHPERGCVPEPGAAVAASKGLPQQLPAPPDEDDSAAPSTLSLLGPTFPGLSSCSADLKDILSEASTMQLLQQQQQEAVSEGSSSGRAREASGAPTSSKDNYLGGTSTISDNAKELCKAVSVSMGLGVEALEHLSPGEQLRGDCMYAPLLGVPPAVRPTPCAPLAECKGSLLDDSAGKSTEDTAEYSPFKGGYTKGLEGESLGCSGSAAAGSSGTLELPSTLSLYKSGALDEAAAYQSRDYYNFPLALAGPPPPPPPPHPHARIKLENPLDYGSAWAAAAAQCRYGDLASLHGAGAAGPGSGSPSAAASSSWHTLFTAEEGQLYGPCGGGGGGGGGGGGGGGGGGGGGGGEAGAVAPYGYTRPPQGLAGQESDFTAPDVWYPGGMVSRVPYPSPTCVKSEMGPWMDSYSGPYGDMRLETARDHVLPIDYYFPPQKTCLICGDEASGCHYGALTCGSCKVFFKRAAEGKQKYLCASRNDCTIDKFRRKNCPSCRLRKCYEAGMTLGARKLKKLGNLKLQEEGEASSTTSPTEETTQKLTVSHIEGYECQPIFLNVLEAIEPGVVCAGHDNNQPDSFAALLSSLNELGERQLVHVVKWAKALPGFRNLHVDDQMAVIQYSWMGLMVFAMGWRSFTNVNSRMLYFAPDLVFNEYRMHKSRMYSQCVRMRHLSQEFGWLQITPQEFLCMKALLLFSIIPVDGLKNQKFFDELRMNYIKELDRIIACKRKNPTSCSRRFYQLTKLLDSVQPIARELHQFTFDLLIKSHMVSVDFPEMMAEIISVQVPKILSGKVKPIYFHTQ
Method in brief: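 Agonism scored as pEC50, fitted by 4-parameter curve against the response to 100 nM DHT, from dual-luciferase readout after 24 h compound treatment. Cells were HEK293 co-transfected (3 h) with human AR expression vector, androgen-responsive firefly reporter and Renilla control, in charcoal-stripped serum.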

[1] = target: T2, androgen receptor (AR-LBD) (Rattus norvegicus, UniProt P15207); test: Evaluation of androgen receptor affinity (PolarScreen Androgen Receptor Competitor Assay Kit, Red; fluorescence polarization); conditions: 22° C. for 5 hours, relative to binding rate of 1 μM DHT, read-out: AR affinity (pEC50) (converted)
T2 construct: 5 μL of 2×AR-LBD/Fluoromone AL Red Complex contained in the kit; purchased Invitrogen
T2 sequence (P15207 651-882 limits assumed): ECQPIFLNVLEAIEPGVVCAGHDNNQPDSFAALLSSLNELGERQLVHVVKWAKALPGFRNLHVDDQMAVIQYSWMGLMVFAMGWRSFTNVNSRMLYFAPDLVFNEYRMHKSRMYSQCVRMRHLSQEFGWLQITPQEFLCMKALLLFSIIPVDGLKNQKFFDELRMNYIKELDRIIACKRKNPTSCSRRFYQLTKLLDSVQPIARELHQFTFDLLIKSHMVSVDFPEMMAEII
Method in brief: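 Duplicate wells of test compound were mixed with the kit's rat AR-LBD–Fluoromone AL Red tracer complex and left 5 hours at 22 °C before polarization was read. A 4-parameter fit gave pEC50, with binding rate referenced to 1 μM dihydrotestosterone.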

## Cc1sc(N(Cc2cccc(C(F)F)c2)c2ccc(C#N)cc2)nc1C(=O)NS(C)(=O)=O [Compound 450, 2-[4-cyano-N-[[3-(difluoromethyl)phenyl]methyl]anilino]-5-methyl-N-methylsulfonyl-thiazole-4-carboxamide]
Human androgen receptor
  EC50: 50.1 nM
[1]
  EC50: 31.6 nM

## Cc1sc(N(Cc2ccccc2)c2ccc(C#N)c(C(F)(F)F)c2)nc1C(=O)NS(C)(=O)=O [Compound 451, 2-[N-benzyl-4-cyano-3-(trifluoromethyl)anilino]-5-methyl-N-methylsulfonyl-thiazole-4-carboxamide]
Human androgen receptor
  EC50: 50.1 nM
[1]
  EC50: 25.1 nM

## CSc1ccccc1CN(c1ccc(C#N)cc1)c1nc(C(=O)NS(C)(=O)=O)c(C)s1 [Compound 452, 2-[4-cyano-N-[(2-methylsulfanylphenyl)methyl]anilino]-5-methyl-N-methylsulfonyl-thiazole-4-carboxamide]
Human androgen receptor
  EC50: 200 nM
[1]
  EC50: 50.1 nM

## Cc1sc(N(CC2Cc3ccccc3C2)c2ccc(C#N)cc2)nc1C(=O)NS(C)(=O)=O [Compound 454, 2-[4-cyano-N-(indan-2-ylmethyl)anilino]-5-methyl-N-methylsulfonyl-thiazole-4-carboxamide]
Human androgen receptor
  EC50: 251 nM
[1]
  EC50: 50.1 nM

## COc1ccccc1CN(c1ccc(C#N)cc1)c1nc(C(=O)NS(C)(=O)=O)c(C)s1 [Compound 455, 2-[4-cyano-N-[(2-methoxyphenyl)methyl]anilino]-5-methyl-N-methylsulfonyl-thiazole-4-carboxamide]
Human androgen receptor
  EC50: 501 nM
[1]
  EC50: 100 nM

## Cc1sc(N(Cc2csc(C(C)C)n2)c2ccc(C#N)cc2)nc1C(=O)NS(C)(=O)=O [Compound 456, 2-[4-cyano-N-[(2-isopropylthiazol-4-yl)methyl]anilino]-5-methyl-N-methylsulfonyl-thiazole-4-carboxamide]
Human androgen receptor
  EC50: 200 nM
[1]
  EC50: 50.1 nM

## Cc1sc(N(Cc2ccccc2O)c2ccc(C#N)cc2)nc1C(=O)NS(C)(=O)=O [Compound 461, 2-[4-cyano-N-[(2-hydroxyphenyl)methyl]anilino]-5-methyl-N-methylsulfonyl-thiazole-4-carboxamide]
Human androgen receptor
  EC50: 158 nM
[1]
  EC50: 100 nM

## Cc1sc(N(CC(=O)c2ccccc2)Cc2ccccc2)nc1C(=O)NS(C)(=O)=O [Compound 463, 2-[benzyl(phenacyl)amino]-5-methyl-N-methylsulfonyl-thiazole-4-carboxamide]
Human androgen receptor
  EC50: 5010 nM
[1]
  EC50: 316 nM

## Cc1sc(N(Cc2csc3cccc(C)c23)c2ccc(C#N)cc2)nc1C(=O)NS(C)(=O)=O [Compound 464, 2-[4-cyano-N-[(4-methylbenzothiophen-3-yl)methyl]anilino]-5-methyl-N-methylsulfonyl-thiazole-4-carboxamide]
Human androgen receptor
  EC50: 5010 nM
[1]
  EC50: 63.1 nM

## Cc1sc(N(Cc2csc(COc3ccccc3)n2)c2ccc(C#N)cc2)nc1C(=O)NS(C)(=O)=O [Compound 465, 2-[4-cyano-N-[[2-(phenoxymethyl)thiazol-4-yl]methyl]anilino]-5-methyl-N-methylsulfonyl-thiazole-4-carboxamide]
Human androgen receptor
  EC50: 794 nM
[1]
  EC50: 25.1 nM

## Cc1sc(N(Cc2cnc(C3CC3)s2)c2ccc(C#N)cc2)nc1C(=O)NS(C)(=O)=O [Compound 466, 2-[4-cyano-N-[(2-cyclopropylthiazol-5-yl)methyl]anilino]-5-methyl-N-methylsulfonyl-thiazole-4-carboxamide]
Human androgen receptor
  EC50: 398 nM
[1]
  EC50: 100 nM

## Cc1sc(N(Cc2ccc(F)cc2)c2ccc(C(F)(F)F)nc2)nc1C(=O)NS(C)(=O)=O [Compound 469, 2-[(4-fluorophenyl)methyl-[6-(trifluoromethyl)-3-pyridyl]amino]-5-methyl-N-methylsulfonyl-thiazole-4-carboxamide]
Human androgen receptor
  EC50: 316 nM
[1]
  EC50: 158 nM

## Cc1sc(N(Cc2ccc(Cl)cc2)c2ccc(C(F)(F)F)nc2)nc1C(=O)NS(C)(=O)=O [Compound 470, 2-[(4-chlorophenyl)methyl-[6-(trifluoromethyl)-3-pyridyl]amino]-5-methyl-N-methylsulfonyl-thiazole-4-carboxamide]
Human androgen receptor
  EC50: 158 nM
[1]
  EC50: 126 nM

## Cc1sc(N(Cc2ccc(OC(F)(F)F)cc2)c2ccc(C(F)(F)F)nc2)nc1C(=O)NS(C)(=O)=O [Compound 471, 5-methyl-N-methylsulfonyl-2-[[4-(trifluoromethoxy)phenyl]methyl-[6-(trifluoromethyl)-3-pyridyl]amino]thiazole-4-carboxamide]
Human androgen receptor
  EC50: 1000 nM
[1]
  EC50: 100 nM

## Cc1sc(N(Cc2ccc(OC(F)F)cc2)c2ccc(C(F)(F)F)nc2)nc1C(=O)NS(C)(=O)=O [Compound 472, 2-[[4-(difluoromethoxy)phenyl]methyl-[6-(trifluoromethyl)-3-pyridyl]amino]-5-methyl-N-methylsulfonyl-thiazole-4-carboxamide]
Human androgen receptor
  EC50: 398 nM
[1]
  EC50: 126 nM

## Cc1sc(N(CC[Si](C)(C)C)c2ccc(C#N)cc2)nc1C(=O)NS(C)(=O)=O [Compound 476, 2-[4-cyano-N-(2-trimethylsilylethyl)anilino]-5-methyl-N-methylsulfonyl-thiazole-4-carboxamide]
Human androgen receptor
  EC50: > 10000 nM
[1]
  EC50: 200 nM

## Cc1sc(N(Cc2ccc3c(c2)CCO3)c2ccc(C#N)cc2)nc1C(=O)NS(C)(=O)=O [Compound 478, 2-[4-cyano-N-(2,3-dihydrobenzofuran-5-ylmethyl)anilino]-5-methyl-N-methylsulfonyl-thiazole-4-carboxamide]
Human androgen receptor
  EC50: 25.1 nM
[1]
  EC50: 63.1 nM

## Cc1sc(N(Cc2cc3ccccc3o2)c2ccc(C#N)cc2)nc1C(=O)NS(C)(=O)=O [Compound 479, 2-[N-(benzofuran-2-ylmethyl)-4-cyano-anilino]-5-methyl-N-methylsulfonyl-thiazole-4-carboxamide]
Human androgen receptor
  EC50: 63.1 nM
[1]
  EC50: 63.1 nM

## Cc1sc(N(CCC2CC3CCC2C3)c2ccc(C#N)cc2)nc1C(=O)NS(C)(=O)=O (centres unmarked) [Compound 482, 2-[4-cyano-N-(2-norbornan-2-ylethyl)anilino]-5-methyl-N-methylsulfonyl-thiazole-4-carboxamide]
Human androgen receptor
  EC50: 158 nM
[1]
  EC50: 50.1 nM

## Cc1sc(N(Cc2ccc3c(c2)C(O)CC3)c2ccc(C#N)cc2)nc1C(=O)NS(C)(=O)=O (centres unmarked) [Compound 484, 2-[4-cyano-N-[(3-hydroxyindan-5-yl)methyl]anilino]-5-methyl-N-methylsulfonyl-thiazole-4-carboxamide]
Human androgen receptor
  EC50: 126 nM
[1]
  EC50: 158 nM

## Cc1sc(N(CCCC2CCCC2)c2ccc(C#N)cc2)nc1C(=O)NS(C)(=O)=O [Compound 485, 2-[4-cyano-N-(3-cyclopentylpropyl)anilino]-5-methyl-N-methylsulfonyl-thiazole-4-carboxamide]
Human androgen receptor
  EC50: 126 nM
[1]
  EC50: 20 nM

## Cc1sc(N(Cc2ccc3c(c2)C(O)CCO3)c2ccc(C#N)cc2)nc1C(=O)NS(C)(=O)=O (centres unmarked) [Compound 486, 2-[4-cyano-N-[(4-hydroxychroman-6-yl)methyl]anilino]-5-methyl-N-methylsulfonyl-thiazole-4-carboxamide]
Human androgen receptor
  EC50: 251 nM
[1]
  EC50: 251 nM

## Cc1sc(N(Cc2ccccc2)c2ccc(C#N)cc2F)nc1C(=O)NS(C)(=O)=O [Compound 487, 2-(N-benzyl-4-cyano-2-fluoro-anilino)-5-methyl-N-methylsulfonyl-thiazole-4-carboxamide]
Human androgen receptor
  EC50: 158 nM
[1]
  EC50: 79.4 nM

## Cc1sc(N(CCc2cccnc2)Cc2ccc(Cl)cc2)nc1C(=O)NS(C)(=O)=O [Compound 488, 2-[(4-chlorophenyl)methyl-[2-(3-pyridyl)ethyl]amino]-5-methyl-N-methylsulfonyl-thiazole-4-carboxamide]
Human androgen receptor
  EC50: > 10000 nM
[1]
  EC50: > 2000 nM

## Cc1sc(N(CC2CCC3(CC2)CC3)c2ccc(C#N)cc2)nc1C(=O)NS(C)(=O)=O [Compound 489, 2-[4-cyano-N-(spiro[2.5]octan-6-ylmethyl)anilino]-5-methyl-N-methylsulfonyl-thiazole-4-carboxamide]
Human androgen receptor
  EC50: 1000 nM
[1]
  EC50: 79.4 nM

From patent US10689354B2, “Aminoazole derivative” (Teijin Pharma Limited, priority 2015, dated 2020)
